Measurements from patent publication US20110230478A1 (Bayer ScienceCrop AG, priority 2008, published 2011).
Where two headings read alike, the source gives them in different places.

Test: logP by HPLC on reversed-phase columns (C 18), EEC Directive 79/831 Annex V.A8
Format: physicochemical
[1] = method marker [b] (compound 257: pH2.7)
[2] = reversed-phase HPLC column (C 18), pH 2.3, pH 2.3, 0.1% aqueous phosphoric acid and acetonitrile, read-out: logP [a]

CCCNc1nc(Nc2cccc(SC)c2)ncc1Cl [Example 284]
logP [1]: 2.3[b]
logP (method marker [c]): 3.87[c];

OCCNc1nc(Nc2ccccc2)ncc1Cl [Example 285]
logP [1]: 0.7[b]
logP (method marker [c]): 1.83[c];

C=CCNc1nc(Nc2ccccc2)ncc1Cl [Example 286]
logP [1]: 1.64[b]
logP (method marker [c]): 3.1[c];

C[Si](C)(C)CNc1nc(Nc2ccccc2)ncc1Cl [Example 287]
logP [1]: 2.14[b]

C=C(C)CNc1nc(Nc2ccccc2)ncc1Cl [Example 288]
logP [1]: 2.62[b]

CC(C)=CCNc1nc(Nc2ccccc2)ncc1Cl [Example 289]
logP [1]: 2.17[b]

CCC(=O)N(C)c1cccc(Nc2ncc(Cl)c(NC(C)C)n2)c1 [Example 290]
logP [1]: 1.76[b]
logP (method marker [c]): 2.89[c];

CC(Nc1nc(Nc2ccccc2)ncc1Cl)[Si](C)(C)C (stereo not shown) [Example 291]
logP [1]: 2.66[b]

CNc1cccc(Nc2ncc(Cl)c(NC(C)C)n2)c1 [Example 292]
logP [1]: 1.32[b]

CSCCNc1nc(Nc2ccccc2)ncc1Cl [Example 293]
logP [1]: 1.75[b]

C=CCCNc1nc(Nc2ccccc2)ncc1Cl [Example 294]
logP [1]: 1.87[b]

COC(C)C(C)Nc1nc(Nc2ccccc2)ncc1Cl (stereo not shown) [Example 295]
logP [1]: 2.04[b]
logP (method marker [c]): 3.64[c];

CCC(C)Nc1nc(Nc2ccccc2)ncc1Cl (stereo not shown) [Example 296]
logP [1]: 2.05[b]

Cc1cnc(Nc2ccccc2)nc1NC(C)(C)C [Example 297]
logP [1]: 1.48[b]

CC(C)Nc1nc(Nc2cccc(Cn3cccn3)c2)ncc1Cl [Example 298]
logP [1]: 1.7[b]

COCC(C)Nc1nc(Cl)ncc1Cl (stereo not shown) [Example V-1, 2,5-Dichloro-N-(3-methoxypropan-2-yl)pyrimidine-4-amine]
chromatographic logP (pH 2.3, logP [a]): 2.1

COCC(C)Nc1nc(Cl)ncc1Br (stereo not shown) [Example V-2, 5-bromo-2-chloro-N-(3-methoxypropan-2-yl)pyrimidine-4-amine]
chromatographic logP (pH 2.3, logP [a]): 2.26

COCCNc1nc(Cl)ncc1Cl [Example V-3, 2,5-dichloro-N-(2-methoxyethyl)pyrimidine-4-amine]
chromatographic logP [2]: 1.65

CCC(CO)Nc1nc(Cl)ncc1Cl (stereo not shown) [Example V-4, 2,5-dichloro-N-(1-hydroxybutan-2-yl)pyrimidine-4-amine]
chromatographic logP [2]: 1.65

OCCNc1nc(Cl)ncc1Cl [Example V-5, 2,5-dichloro-N-(2-hydroxyethyl)pyrimidine-4-amine]
chromatographic logP [2]: 0.97

CSCC(C)Nc1nc(Cl)ncc1Cl (stereo not shown) [Example V-6, 2,5-dichloro-N-[1-(methylsulphanyl)propan-2-yl]pyrimidine-4-amine]
chromatographic logP [2]: 2.73

CSCC(C)(C)Nc1nc(Cl)ncc1Cl [Example V-7, 2,5-dichloro-N-[2-methyl-1-(methylsulphanyl)propan-2-yl]pyrimidine-4-amine]
chromatographic logP (pH 2.3, logP [a]): 3.47

N#CCNc1nc(Cl)ncc1Cl [Example V-8, [(2,5-dichloropyrimidin-4-yl)amino]acetonitrile]
chromatographic logP (pH 2.3, logP [a]): 1.27

CC(C)Nc1nc(Cl)ncc1Cl [Example V-9, 2,5-dichloro-N-(propan-2-yl)pyrimidine-4-amine]
chromatographic logP (pH 2.3, logP [a]): 2.46

CC(C)Nc1nc(Cl)ncc1Br [Example V-10, 5-bromo-2-chloro-N-(propan-2-yl)pyrimidine-4-amine]
chromatographic logP [2]: 2.62

CC(C)N(C)c1nc(Cl)ncc1Cl [Example V-11, 2,5-dichloro-N-methyl-N-(propan-2-yl)pyrimidine-4-amine]
chromatographic logP (pH 2.3, logP [a]): 3.16

Clc1ncc(Cl)c(NC2CCCC2)n1 [Example V-12, 2,5-dichloro-N-(cyclopentyl)pyrimidine-4-amine]
chromatographic logP (pH 2.3, logP [a]): 3.16

C=CCNc1nc(Cl)ncc1Cl [Example V-13, 2,5-dichloro-N-(prop-2-en-1-yl)pyrimidine-4-amine]
chromatographic logP (pH 2.3, logP [a]): 2.12

CCC(C)Nc1nc(Cl)ncc1Cl (stereo not shown) [Example V-14, 2,5-dichloro-N-(butan-2-yl)pyrimidine-4-amine]
chromatographic logP (pH 2.3, logP [a]): 2.94
